This experiment deals with CD2F1 mice, L1210 leukemia ip, survival T/C. The experiment is described as follows: NCI In Vivo Anticancer Drug Screen. Data for tumor model L1210 Leukemia (intraperitoneal) in CD2F1 (CDF1) mice. Particulars: higher = longer survival. The essentials: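 Vehicle-treated tumor-bearing mice served as controls (C) for compound-treated mice (T). Reported figure is T divided by C.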

Where [1] appears, read: endpoint: mean survival time, dose: 50.0 mg/kg/injection, schedule: Q01DX009 (ip), vehicle: other.
Where [2] appears, read: endpoint: mean survival time, dose: 50.0 mg/kg/injection, schedule: Q01DX009 (ip), vehicle: saline with Tween-80.
[3] abbreviates: endpoint: mean survival time, dose: 100.0 mg/kg/injection, schedule: Q01DX009 (ip), vehicle: other.
The mark [4] stands for this setting: endpoint: mean survival time, dose: 100.0 mg/kg/injection, schedule: Q01DX009 (ip), vehicle: saline with Tween-80.
The mark [5] stands for this setting: endpoint: mean survival time, dose: 200.0 mg/kg/injection, schedule: Q01DX009 (ip), vehicle: other.
[6] abbreviates: endpoint: mean survival time, dose: 200.0 mg/kg/injection, schedule: Q01DX009 (ip), vehicle: saline with Tween-80.
The mark [7] stands for this setting: endpoint: mean survival time, dose: 100.0 mg/kg/injection, schedule: Q04DX003 (ip), vehicle: saline with Tween-80.
The mark [8] stands for this setting: endpoint: mean survival time, dose: 200.0 mg/kg/injection, schedule: Q04DX003 (ip), vehicle: saline with Tween-80.
Where [9] appears, read: endpoint: mean survival time, dose: 400.0 mg/kg/injection, schedule: Q01DX009 (ip), vehicle: saline with Tween-80.
Where [10] appears, read: endpoint: mean survival time, dose: 400.0 mg/kg/injection, schedule: Q04DX003 (ip), vehicle: saline with Tween-80.
Where [11] appears, read: endpoint: mean survival time, dose: 100.0 mg/kg/injection, schedule: Q01DX001 (ip), vehicle: saline with Tween-80.
Setting [12] is: endpoint: mean survival time, dose: 200.0 mg/kg/injection, schedule: Q01DX001 (ip), vehicle: saline with Tween-80.
Setting [13] is: endpoint: mean survival time, dose: 400.0 mg/kg/injection, schedule: Q01DX001 (ip), vehicle: saline with Tween-80.

Values joined by “and” are separate entries in the source; they are usually repeats but may differ in a detail not shown here. Equal entries are not always repeated. Toxic doses and inconclusive results are not listed.

Consider `Nc1nc2n[nH]nc2c(=O)[nH]1`, for which the T/C is 103 % of control (endpoint: mean survival time, dose: 0.78 mg/kg/injection, schedule: Q01DX009 (ip), vehicle: saline with Tween-80); 115 % of control (endpoint: mean survival time, dose: 1.56 mg/kg/injection, schedule: Q01DX009 (ip), vehicle: saline with Tween-80); 150 % of control (endpoint: mean survival time, dose: 12.5 mg/kg/injection, schedule: Q01DX009 (ip), vehicle: saline with Tween-80); 151 % of control (endpoint: mean survival time, dose: 25.0 mg/kg/injection, schedule: Q01DX009 (ip), vehicle: saline with Tween-80); 154 % of control under setting [1]; 156 % of control and 158 % of control under setting [2]. Also, the T/C is 120 % of control (endpoint: mean survival time, dose: 50.0 mg/kg/injection, schedule: Q03DX003 (ip), vehicle: other); 111 % of control (endpoint: mean survival time, dose: 50.0 mg/kg/injection, schedule: Q04DX003 (ip), vehicle: other); 114 % of control (endpoint: mean survival time, dose: 75.0 mg/kg/injection, schedule: Q01DX009 (ip), vehicle: saline with Tween-80); 108 % of control (endpoint: mean survival time, dose: 100.0 mg/kg/injection, schedule: Q01DX001 (ip), vehicle: saline sonified); 153 % of control under setting [3]; 97 % of control and 107 % of control under setting [4]. Besides, the T/C (endpoint: mean survival time, dose: 100.0 mg/kg/injection, schedule: Q04DX003 (ip), vehicle: other) is 123 % of control; the T/C (endpoint: mean survival time, dose: 200.0 mg/kg/injection, schedule: Q01DX001 (ip), vehicle: saline sonified) was 108 % of control; the T/C (endpoint: mean survival time, dose: 200.0 mg/kg/injection, schedule: Q01DX007 (ip), vehicle: other) was 150 % of control; the T/C under setting [5] is 153 % of control; the T/C (endpoint: mean survival time, dose: 200.0 mg/kg/injection, schedule: Q01DX009 (ip), vehicle: saline sonified) is 106 % of control; the T/C under setting [6] was 97 % of control. For the same compound, the T/C (endpoint: mean survival time, dose: 200.0 mg/kg/injection, schedule: Q03DX003 (ip), vehicle: other) was 120 % of control; the T/C (endpoint: mean survival time, dose: 200.0 mg/kg/injection, schedule: Q04DX003 (ip), vehicle: other) was 119 % of control; the T/C (endpoint: mean survival time, dose: 400.0 mg/kg/injection, schedule: Q01DX001 (ip), vehicle: saline sonified) is 112 % of control; the T/C (endpoint: median survival time, dose: 50.0 mg/kg/injection, schedule: Q01DX009 (ip), vehicle: saline) was 164 % of control; the T/C (endpoint: median survival time, dose: 100.0 mg/kg/injection, schedule: Q01DX009 (ip), vehicle: saline) is 164 % of control; the T/C (endpoint: median survival time, dose: 200.0 mg/kg/injection, schedule: Q01DX009 (ip), vehicle: saline) is 164 % of control. Also, for the setting “endpoint: median survival time, dose: 400.0 mg/kg/injection, schedule: Q01DX009 (ip), vehicle: saline”, the T/C is 111 % of control.

Consider `O=[N+]([O-])c1ccc2c(c1)CS(=O)(=O)O2`, for which the T/C reads like this: under setting [4], 109 % of control; under setting [7], 103 % of control; under setting [6], 107 % of control; under setting [8], 100 % of control; under setting [9], 107 % of control; under setting [10], 95 % of control.

Turning to `CCCCOC(=O)CSSCC(=O)OCCCC`, the T/C is, setting by setting: under setting [2], 101 % of control; under setting [4], 101 % of control; under setting [6], 93 % of control.

On to `CCCOCC(O)CNCCN` (centres undefined), for which the T/C was 96 % of control and 101 % of control (endpoint: mean survival time, dose: 12.5 mg/kg/injection, schedule: Q01DX009 (ip), vehicle: saline); 94 % of control and 98 % of control (endpoint: mean survival time, dose: 25.0 mg/kg/injection, schedule: Q01DX009 (ip), vehicle: saline); 93 % of control and 94 % of control (endpoint: mean survival time, dose: 50.0 mg/kg/injection, schedule: Q01DX009 (ip), vehicle: saline); 93 % of control and 96 % of control (endpoint: mean survival time, dose: 100.0 mg/kg/injection, schedule: Q01DX009 (ip), vehicle: saline).

Take `O=C(Nc1ccccc1)C(Cl)Cl`: the T/C under setting [7] was 103 % of control, the T/C under setting [8] is 103 % of control and the T/C under setting [10] is 97 % of control.

As to `Cc1cnc(Cl)c(Br)c1`, the T/C under setting [11] was 96 % of control; the T/C under setting [4] was 104 % of control; the T/C under setting [12] is 101 % of control; the T/C under setting [6] is 100 % of control; the T/C under setting [13] was 95 % of control; the T/C under setting [9] is 106 % of control.

Regarding `O=c1c(Br)cocc1Br`, the T/C runs as follows: (endpoint: mean survival time, dose: 100.0 mg/kg/injection, schedule: Q04DX003 (ip), vehicle: saline sonified) 104 % of control; (endpoint: mean survival time, dose: 200.0 mg/kg/injection, schedule: Q04DX003 (ip), vehicle: saline sonified) 102 % of control; (endpoint: mean survival time, dose: 400.0 mg/kg/injection, schedule: Q04DX003 (ip), vehicle: saline sonified) 102 % of control.

As for `COc1cc2c(C)nc3c4cc5c(cc4ccc3c2cc1OC)OCO5`, the T/C was 97 % of control (endpoint: mean survival time, dose: 3.13 mg/kg/injection, schedule: Q01DX009 (ip), vehicle: water); 92 % of control (endpoint: mean survival time, dose: 6.25 mg/kg/injection, schedule: Q01DX009 (ip), vehicle: water); 90 % of control (endpoint: mean survival time, dose: 12.5 mg/kg/injection, schedule: Q01DX009 (ip), vehicle: water); 95 % of control (endpoint: mean survival time, dose: 25.0 mg/kg/injection, schedule: Q01DX009 (ip), vehicle: water); 93 % of control (endpoint: mean survival time, dose: 50.0 mg/kg/injection, schedule: Q01DX009 (ip), vehicle: water).

On to `CN1C(=O)c2ccccc2C1(c1ccccc1)c1ccccc1`, for which the T/C is 92 % of control under setting [7], 103 % of control under setting [8] and 102 % of control under setting [10].

For `CCN(C(=O)CCl)c1ccccc1C`, the T/C is 92 % of control under setting [7] and 89 % of control under setting [8].

For the compound `O=Cc1cc([N+](=O)[O-])ccc1OCC(=O)O`, the T/C was 92 % of control under setting [4], 95 % of control under setting [6] and 96 % of control under setting [9].

Take `COc1ccc([N+](=O)[O-])cc1NC(=O)Nc1cccc(C(F)(F)F)c1`: the T/C (endpoint: mean survival time, dose: 50.0 mg/kg/injection, schedule: Q01DX001 (ip), vehicle: Klucel (hydroxypropylcellulose) (HPC)) is 101 % of control; the T/C (endpoint: mean survival time, dose: 100.0 mg/kg/injection, schedule: Q01DX001 (ip), vehicle: Klucel (hydroxypropylcellulose) (HPC)) is 96 % of control; the T/C (endpoint: mean survival time, dose: 200.0 mg/kg/injection, schedule: Q01DX001 (ip), vehicle: Klucel (hydroxypropylcellulose) (HPC)) is 93 % of control.

Regarding `COc1cc2cccnc2c2[nH]cc(C(=O)O)c(=O)c12`, the T/C (endpoint: mean survival time, dose: 100.0 mg/kg/injection, schedule: Q01DX001 (ip), vehicle: saline) is 107 % of control; the T/C under setting [4] was 97 % of control; the T/C (endpoint: mean survival time, dose: 200.0 mg/kg/injection, schedule: Q01DX001 (ip), vehicle: saline) was 100 % of control; the T/C (endpoint: mean survival time, dose: 400.0 mg/kg/injection, schedule: Q01DX001 (ip), vehicle: saline) was 97 % of control.

As to `O=S(=O)(NC1CCCC2C=CC=CC21)c1ccccc1` (centres undefined), the T/C is 94 % of control under setting [11], 102 % of control under setting [12] and 96 % of control under setting [13].

With `CCCCC(O)C(C)C` (centres undefined), the T/C by setting is: under setting [2], 100 % of control; under setting [4], 103 % of control; under setting [6], 106 % of control.

As to `CCOC(=O)c1ccc(NC(N)=S)cc1`, the T/C was 98 % of control under setting [1]; 95 % of control under setting [3]; 95 % of control under setting [5]; 91 % of control (endpoint: mean survival time, dose: 400.0 mg/kg/injection, schedule: Q01DX009 (ip), vehicle: other).

For the compound `COc1cc2c(cc1OC)C1CC(O)C3CCCCC3N1CC2` (centres undefined), the T/C runs as follows: under setting [7], 93 % of control; under setting [8], 93 % of control.

As to `N/C(=N\O)c1ccccc1`, the T/C under setting [2] is 103 % of control, the T/C under setting [4] was 98 % of control and the T/C under setting [6] was 90 % of control.

For `COc1cc[n+](CCc2c[nH]c3ccccc23)cc1`, the T/C runs as follows: (endpoint: mean survival time, dose: 12.5 mg/kg/injection, schedule: Q01DX009 (ip), vehicle: saline sonified) 97 % of control; (endpoint: mean survival time, dose: 12.5 mg/kg/injection, schedule: Q04DX003 (ip), vehicle: saline with Tween-80) 97 % of control; (endpoint: mean survival time, dose: 25.0 mg/kg/injection, schedule: Q01DX009 (ip), vehicle: saline sonified) 98 % of control; (endpoint: mean survival time, dose: 25.0 mg/kg/injection, schedule: Q04DX003 (ip), vehicle: saline with Tween-80) 101 % of control; (endpoint: mean survival time, dose: 50.0 mg/kg/injection, schedule: Q01DX009 (ip), vehicle: saline sonified) 100 % of control; (endpoint: mean survival time, dose: 50.0 mg/kg/injection, schedule: Q04DX003 (ip), vehicle: saline with Tween-80) 104 % of control.

With `COc1cc(OC)c(NC(=O)Nc2ccc(C)c([N+](=O)[O-])c2)cc1Cl`, the T/C was 98 % of control under setting [2], 90 % of control under setting [4] and 94 % of control under setting [6].

(Values after PubChem BioAssay AID256 (DTP/NCI, 2004).)
